Key:
[1] = Pharmacokinetics in the rat, intravenous and oral; type: in vivo, Sprague Dawley rats
Experimental: Pharmacokinetics studies in the rat
DF2726A was administered to male Sprague Dawley rats (Charles River Srl. Calco Italy, 6-8 weeks old, n = 4/groups) intravenously (5 mg/kg, Dulbecco’s phosphate buffered saline) and orally (5 mg/kg Dulbecco’s phosphate buffered saline).
On day of treatment, an exact amount of DF2726A was dissolved in the appropriate volume of vehicle to obtain a final concentration of 2.0 mg/mL (IV) and 1 mg/mL (OS). Both of the formulations were filtered at 0.45 μm filter before use in animals.
After the administration of DF2726A, a 0.15-0.20 mL of blood was collected via jugular vein catheters with zero-dead volume disposable syringes (1 mL iv Insulin syringes with attached 25G […]
5/8 inch needles; Chemil s.r.l., Padova, Italy) at 0.08, 0.5, 1, 3, 6, 12, 24, 36 and 48 h for i.v. dosing and at 0.25, 0.5, 1, 3, 6, 12, 24, 36 and 48 h for oral dosing. After each blood withdrawal, the catheters were washed with 0.15-0.2 mL of sterile physiological saline and filled with 0.03 mL of heparin saline solution (0.25 U.I/mL). The heparinized blood was immediately centrifuged (8000 RPM for 5 min at approximately 4°C) and the resultant plasma transferred into vials and stored at - 20°C until analysis. DF2726A concentrations were quantified by HLPC-MS/MS using a chromatographic method with a lower limit of quantitation of 1 ng·mL -1. Non-compartmental analysis (Gibaldi and Perrier, 1982) were used to calculate the pharmacokinetic parameters using a MKModel by Nick Holford software Version 4, (Biosoft, Ferguson, MO 63 135, USA). […]

[2] = system: oxaliplatin-induced cold allodynia; experiment: Oxaliplatin-induced cold allodynia (acetone test); type: in vivo, male Wistar rats; conditions: 30 mg/kg os for 24 days; from day 5 (P < 0.01) to final test day (P < 0.001)
Experimental: (§1) Behavioural tests were performed on male Wistar rats (200–250 g, Harlan, Italy) housed in the animal care facility at the Department of Pharmacy of the University of Naples Federico II, Italy, as previously described. Animals were housed, in a group of five, in a room with controlled temperature (22 ± 1 °C), humidity (60 ± 10%) and light (12 h per day); food and water were available ad libitum. All animals were weighted on the day of each treatment. All behavioural tests were performed between 09:00 and 17:00 h, and the animals were used only once. Animal care and manipulations were conducted in conformity with International and National law and policies (EU Directive 2010/63/EU for animal experiments, ARRIVE guidelines, and the Basel declaration including the 3R concept). The procedures reported here were approved by the Institutional Committee on the Ethics of Animal Experiments (CVS) of the University of Naples Federico II and by Ministero della Salute under protocol no. 2014-00884607. […]
Cold sensitivity was measured as the number of foot withdrawal responses after application of acetone to the dorsal surface of the paw[8],[22]. […] The mean of paw withdrawal (expressed in numbers) was determined from an average of six separate measurements. Cold responses were measured before (day -1) and then 3, 5, 7, 10, 14 and 21 days after first administration of oxaliplatin or vehicle. […]

[3] = Aqueous solubility (SiriusT3); type: physicochemical
Experimental: vehicle were seeded in the upper compartment. The two compartments were separated by 5 µm pre-size polycarbonate filter (polyvinylpyrrolidone-free for PMN chemotaxis). The chamber was […]
Physicochemical characterization […]
and a turbidity-sensing device. […]
water/HBSS to a final concentration of 10 μM. Cell membrane homogenates (48 μg protein) were […]

P-glycoprotein (P-gp) = target: T1, P-glycoprotein (P-gp) (Homo sapiens, UniProt P08183); experiment: P-gp inhibition (Caco-2 cell assay); type: in vitro ADME
T1 construct: endogenous in cells; host or cells: Caco-2
T1 sequence (P08183 whole entry): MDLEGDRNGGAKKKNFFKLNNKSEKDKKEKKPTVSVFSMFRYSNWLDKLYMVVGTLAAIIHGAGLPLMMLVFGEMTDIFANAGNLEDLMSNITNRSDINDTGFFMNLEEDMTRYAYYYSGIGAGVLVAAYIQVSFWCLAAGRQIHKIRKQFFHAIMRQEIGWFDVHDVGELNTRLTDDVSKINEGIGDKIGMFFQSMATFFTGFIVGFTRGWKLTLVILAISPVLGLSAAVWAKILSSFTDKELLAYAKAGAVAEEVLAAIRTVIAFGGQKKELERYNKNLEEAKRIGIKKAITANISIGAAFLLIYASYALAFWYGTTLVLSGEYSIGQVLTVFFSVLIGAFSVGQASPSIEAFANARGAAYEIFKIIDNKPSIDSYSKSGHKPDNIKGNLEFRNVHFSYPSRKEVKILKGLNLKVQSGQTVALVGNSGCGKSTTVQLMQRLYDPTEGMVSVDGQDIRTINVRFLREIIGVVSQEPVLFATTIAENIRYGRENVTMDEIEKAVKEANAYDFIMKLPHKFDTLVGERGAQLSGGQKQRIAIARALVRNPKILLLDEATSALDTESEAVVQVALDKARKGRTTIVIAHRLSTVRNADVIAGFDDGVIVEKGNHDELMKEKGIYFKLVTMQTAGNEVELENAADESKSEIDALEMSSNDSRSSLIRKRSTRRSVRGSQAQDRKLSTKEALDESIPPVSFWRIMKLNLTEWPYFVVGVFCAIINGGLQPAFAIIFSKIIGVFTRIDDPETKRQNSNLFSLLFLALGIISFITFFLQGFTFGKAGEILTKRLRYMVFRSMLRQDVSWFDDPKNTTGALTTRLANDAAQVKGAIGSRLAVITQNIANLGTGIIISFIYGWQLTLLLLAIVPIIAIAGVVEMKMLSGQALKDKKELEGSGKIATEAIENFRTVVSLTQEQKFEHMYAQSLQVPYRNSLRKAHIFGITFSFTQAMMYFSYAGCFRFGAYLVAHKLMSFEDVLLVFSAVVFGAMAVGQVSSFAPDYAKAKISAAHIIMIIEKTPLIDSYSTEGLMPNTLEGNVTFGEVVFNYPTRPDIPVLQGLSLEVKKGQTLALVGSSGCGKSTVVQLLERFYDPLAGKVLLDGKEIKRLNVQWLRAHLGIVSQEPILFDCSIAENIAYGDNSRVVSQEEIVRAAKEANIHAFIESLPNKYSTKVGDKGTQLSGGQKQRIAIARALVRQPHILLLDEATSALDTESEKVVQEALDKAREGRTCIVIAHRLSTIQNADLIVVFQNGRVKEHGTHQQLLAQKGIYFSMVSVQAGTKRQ

[4] = system: oxaliplatin-induced mechanical allodynia; experiment: Oxaliplatin-induced mechanical allodynia (Dynamic Plantar Aesthesiometer); type: in vivo, male Wistar rats; conditions: 30 mg/kg os for 24 days; at 14 (P < 0.05) and 21 days (P < 0.01) vs Oxa + saline
Experimental: as §1
To assess for changes in sensation or in the development of mechanical allodynia, sensitivity to tactile stimulation was measured using the Dynamic Plantar Aesthesiometer (DPA, Ugo Basile, Italy), which is an automated version of the von Frey hair assessment. […] The means of paw withdrawal (expressed in grams) were calculated from an average of four separate measurements. […]

[5] = single 5 mg/kg intravenous dose

CC(C)(C(=O)O)c1ccc(Nc2nc(C(F)(F)F)cs2)cc1 [DF2726A]
AUC0-last Oral ([1]; 5 mg/kg oral dose): 136.3 ± 22.6 µg·h/mL
Cmax Oral ([1]; 5 mg/kg oral dose): 6860 ± 1600 ng/mL
t1/2 Oral ([1]; 5 mg/kg oral dose): 16.2 ± 3.3 h
tmax Oral ([1]; 5 mg/kg oral dose): 6.0 h
F (oral bioavailability) ([1]; 5 mg/kg oral vs 5 mg/kg intravenous): 96.8%
AUC0-last Intravenous [1, 5]: 140.8 ± 24.9 µg·h/mL
CLtotal Intravenous [1, 5]: 0.62 ± 0.11 mL/min/kg
Vd Intravenous [1, 5]: 0.52 ± 0.09 L/kg
t1/2 Intravenous [1, 5]: 15.2 ± 3.8 h
Effect on oxaliplatin-induced cold allodynia (acetone paw withdrawal responses) [2]: marked attenuation of cold allodynia
Acqueous solubility [3]: >30 mg/mL
P-glycoprotein (P-gp) inhibition (P-glycoprotein (P-gp)): no P-glycoprotein (P-gp) inhibition
Effect on oxaliplatin-induced mechanical allodynia (paw withdrawal threshold, DPA test) [4]: significant anti-allodynic effect
